The NIST ThermoML archive (doi:10.1021/je8000975)
Several values for one entry are separate records, joined by “and”; a condition that tells them apart may be missing. Identical values can stand only once.

Key:
[1] = Liquid; for speed of sound: Sing-around technique in a fixed-path interferometer
[2] = xn = mol fraction of the nth substance listed; settings: 101 kPa, Liquid

CCCOCCO [2-propoxyethanol]
[1]
Settings	mass density [kg/m3]	speed of sound [m/s]
293.15 K	911.515	1316.6
298.15 K	907.151	1298.6
303.15 K	902.736	1281.1

CCCOCCO [2-propoxyethanol] + CCCCOCCCC
[2]
Settings	mass density
293.15 K, x1 = 0.0625	774.485 kg/m3
293.15 K, x1 = 0.1231	780.612 kg/m3
293.15 K, x1 = 0.1827	786.927 kg/m3
293.15 K, x1 = 0.2394	793.199 kg/m3
293.15 K, x1 = 0.2492	794.319 kg/m3
293.15 K, x1 = 0.2944	799.55 kg/m3
293.15 K, x1 = 0.2949	799.613 kg/m3
293.15 K, x1 = 0.3486	806.069 kg/m3
293.15 K, x1 = 0.4023	812.805 kg/m3
293.15 K, x1 = 0.4544	819.603 kg/m3
293.15 K, x1 = 0.4567	819.921 kg/m3
293.15 K, x1 = 0.5556	833.65 kg/m3
293.15 K, x1 = 0.599	840.02 kg/m3
293.15 K, x1 = 0.6019	840.448 kg/m3
293.15 K, x1 = 0.6498	847.778 kg/m3
293.15 K, x1 = 0.6536	848.363 kg/m3
293.15 K, x1 = 0.7431	862.909 kg/m3
293.15 K, x1 = 0.8304	878.188 kg/m3
293.15 K, x1 = 0.8329	878.643 kg/m3
293.15 K, x1 = 0.875	886.46 kg/m3
293.15 K, x1 = 0.9173	894.637 kg/m3
293.15 K, x1 = 0.9567	902.506 kg/m3
293.15 K, x1 = 0.9568	902.528 kg/m3
298.15 K, x1 = 0.0551	769.407 kg/m3
298.15 K, x1 = 0.0626	770.132 kg/m3
298.15 K, x1 = 0.1039	774.248 kg/m3
298.15 K, x1 = 0.1246	776.381 kg/m3
298.15 K, x1 = 0.1556	779.622 kg/m3
298.15 K, x1 = 0.2367	788.484 kg/m3
298.15 K, x1 = 0.2393	788.779 kg/m3
298.15 K, x1 = 0.2922	794.872 kg/m3
298.15 K, x1 = 0.3545	802.367 kg/m3
298.15 K, x1 = 0.4014	808.252 kg/m3
298.15 K, x1 = 0.4031	808.491 kg/m3
298.15 K, x1 = 0.455	815.247 kg/m3
298.15 K, x1 = 0.5006	821.438 kg/m3
298.15 K, x1 = 0.5043	821.944 kg/m3
298.15 K, x1 = 0.5521	828.692 kg/m3
298.15 K, x1 = 0.6483	843.112 kg/m3
298.15 K, x1 = 0.6976	850.944 kg/m3
298.15 K, x1 = 0.6984	851.074 kg/m3
298.15 K, x1 = 0.6993	851.218 kg/m3
298.15 K, x1 = 0.7502	859.679 kg/m3
298.15 K, x1 = 0.7902	866.584 kg/m3
298.15 K, x1 = 0.8325	874.153 kg/m3 and 874.166 kg/m3
298.15 K, x1 = 0.9152	889.815 kg/m3
298.15 K, x1 = 0.9163	890.027 kg/m3
298.15 K, x1 = 0.9571	898.214 kg/m3
298.15 K, x1 = 0.9581	898.407 kg/m3
303.15 K, x1 = 0.0645	765.959 kg/m3
303.15 K, x1 = 0.1249	772.015 kg/m3
303.15 K, x1 = 0.1826	778.083 kg/m3
303.15 K, x1 = 0.2383	784.22 kg/m3 and 784.216 kg/m3
303.15 K, x1 = 0.3481	797.121 kg/m3
303.15 K, x1 = 0.4032	804.021 kg/m3
303.15 K, x1 = 0.4542	810.67 kg/m3
303.15 K, x1 = 0.4567	810.994 kg/m3
303.15 K, x1 = 0.5058	817.67 kg/m3
303.15 K, x1 = 0.5547	824.595 kg/m3
303.15 K, x1 = 0.5548	824.612 kg/m3
303.15 K, x1 = 0.5997	831.213 kg/m3
303.15 K, x1 = 0.6542	839.567 kg/m3
303.15 K, x1 = 0.6988	846.673 kg/m3
303.15 K, x1 = 0.7434	854.06 kg/m3
303.15 K, x1 = 0.7899	862.072 kg/m3
303.15 K, x1 = 0.8319	869.613 kg/m3
303.15 K, x1 = 0.8764	877.879 kg/m3
303.15 K, x1 = 0.9168	885.687 kg/m3 and 885.692 kg/m3
303.15 K, x1 = 0.9553	893.42 kg/m3
303.15 K, x1 = 0.9575	893.858 kg/m3
